Test results published in patent publication US20100112055A1, “MICROPOROUS FILM AND PREPARATION AND USE THEREOF” (NATIONAL TAIWAN UNIVERSITY, priority 2008, published 2010).

Experiment: Pharmacokinetic study in vivo, plasma theophylline by HPLC
Conditions: male, rabbit, rabbits, intravenous injection, n = 5
Protocol: The male rabbits were used as an animal model in this invention. Each rabbit was intravenous injection of theophylline solution, orally administered an uncoated theophylline core tablet (TH-Lac) and a coated micropore-controlled release tablet (TH-Lac-A50), respectively. Blood samples were collected at specific time points, and the plasma concentrations of theophylline were analyzed by high-performance liquid chromatography equipped with a reverse-phase column (Hypersil BDS C18, 250×4.6 mm, 5 μm) and a UV spectrophotometer at a wavelength of 272 nm (Shimadzu SPD-6AV). The mobile phase constituted by acetonitrile and 0.2 M acetate buffer solution (pH 4.5) in the ratio of 6.5:93.5% v/v was applied at a flow rate of 1.0 mL/min.

Cn1c(=O)c2[nH]cnc2n(C)c1=O [IV-TH, theophylline]
AUC(0-inf): 117 ± 25.9 µg·h/mL
Cmax: 21200 ± 1990 ng/mL
MRT: 7.7 ± 1.16 h
Tmax: 0.25 h
